# Experiments:
# [1] = Volume of distribution at steady state in Beagle dog at 2 mg/kg, po and 1 mg/kg, iv by LC-MS analysis; type: ADME, organism-based, Canis lupus familiaris; details: in vivo
# [2] = system: PBMC; test: Antagonist activity at NLRP3 inflammasome activation in Cynomolgus monkey PBMC assessed as inhibition of LPS-stimulated IL-1beta release by measuring free concentration pretreated for 1 hr followed by induced with LPS measured after 18 hrs by HTRF analysis; type: cell-based; details: Macaca fascicularis, filed as antagonist, time 19.0 hrs
# [3] = target: T1, Cytochrome P450 2B6 (Homo sapiens, UniProt P20813); test: Inhibition of CYP2B6 (unknown origin) by time dependent inhibition assay; type: ADME
# T1 sequence (P20813 whole entry): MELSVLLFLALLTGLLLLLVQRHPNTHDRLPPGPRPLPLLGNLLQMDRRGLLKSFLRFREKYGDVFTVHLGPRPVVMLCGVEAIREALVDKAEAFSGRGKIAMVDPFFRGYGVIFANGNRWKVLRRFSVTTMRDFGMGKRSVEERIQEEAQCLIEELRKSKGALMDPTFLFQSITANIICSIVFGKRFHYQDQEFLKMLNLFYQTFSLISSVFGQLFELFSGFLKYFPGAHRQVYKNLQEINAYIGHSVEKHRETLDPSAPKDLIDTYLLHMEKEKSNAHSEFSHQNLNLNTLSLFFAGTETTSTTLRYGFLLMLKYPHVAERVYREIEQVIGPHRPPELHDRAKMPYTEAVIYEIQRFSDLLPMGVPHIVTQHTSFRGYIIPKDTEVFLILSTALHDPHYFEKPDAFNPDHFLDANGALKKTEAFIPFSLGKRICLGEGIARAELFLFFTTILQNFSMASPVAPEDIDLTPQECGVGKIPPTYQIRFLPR
# [4] = system: THP-1; test: Inhibition of mCerulean-tagged ASC pyroptosome formation in PMA-primed human THP-1 cells assessed as speak count pretreated for 1 hr followed by stimulated with gramicidin for 2 hrs by fluorescence imaging analysis; type: cell-based; details: dose 0.001-100 µM
# [5] = target: T2, Cytochrome P450 2C8 (Homo sapiens, UniProt P10632); test: Inhibition of CYP2C8 (unknown origin) by time dependent inhibition assay; type: ADME
# T2 sequence (P10632 whole entry): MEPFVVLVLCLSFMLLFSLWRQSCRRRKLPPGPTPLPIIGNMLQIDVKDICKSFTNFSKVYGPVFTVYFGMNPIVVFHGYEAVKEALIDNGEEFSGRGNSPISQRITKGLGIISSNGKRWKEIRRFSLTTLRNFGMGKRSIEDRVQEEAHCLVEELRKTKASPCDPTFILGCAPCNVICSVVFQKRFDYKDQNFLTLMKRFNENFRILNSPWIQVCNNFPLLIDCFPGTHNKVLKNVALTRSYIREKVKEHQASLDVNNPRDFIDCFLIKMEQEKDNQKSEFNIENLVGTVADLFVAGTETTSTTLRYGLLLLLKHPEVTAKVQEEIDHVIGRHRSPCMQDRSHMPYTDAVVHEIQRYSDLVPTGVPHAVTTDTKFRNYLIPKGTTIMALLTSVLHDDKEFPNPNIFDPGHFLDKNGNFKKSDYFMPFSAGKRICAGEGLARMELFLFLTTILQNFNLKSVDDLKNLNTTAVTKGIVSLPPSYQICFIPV
# [6] = AUC (infinity) in C57 BL6 mouse at 10 mg/kg, po by LC-MS analysis; type: ADME, organism-based; details: in vivo
# [7] = target: T3, Cytochrome P450 1A2 (Homo sapiens, UniProt P05177); test: Inhibition of CYP1A2 (unknown origin); type: ADME
# T3 sequence (P05177 whole entry): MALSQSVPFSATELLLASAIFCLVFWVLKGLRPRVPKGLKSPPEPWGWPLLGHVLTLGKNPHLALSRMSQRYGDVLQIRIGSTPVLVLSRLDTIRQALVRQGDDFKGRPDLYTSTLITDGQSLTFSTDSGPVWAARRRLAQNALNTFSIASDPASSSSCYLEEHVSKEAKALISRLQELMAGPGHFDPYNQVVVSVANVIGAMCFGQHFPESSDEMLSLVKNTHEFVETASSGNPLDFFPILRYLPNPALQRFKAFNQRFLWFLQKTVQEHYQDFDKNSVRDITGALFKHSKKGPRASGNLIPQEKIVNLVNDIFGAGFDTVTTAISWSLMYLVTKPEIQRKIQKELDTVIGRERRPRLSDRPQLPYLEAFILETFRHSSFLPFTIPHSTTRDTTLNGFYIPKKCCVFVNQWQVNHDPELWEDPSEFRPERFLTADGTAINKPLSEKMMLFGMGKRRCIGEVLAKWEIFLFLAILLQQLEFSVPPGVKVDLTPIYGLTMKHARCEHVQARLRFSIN
# [8] = Metabolic stability in dog hepatocytes assessed as intrinsic clearance measured per 10^6 cells; type: ADME, cell-based, Canis lupus familiaris, Hepatocyte; details: read-out: CLH
smiles,measurement,setting,value
CC(C)(O)c1ncc([S@](N)(=O)=NC(=O)Nc2c3c(cc4c2CCC4)CCC3)s1,Vdss,[1],0.16 L/kg
same,fIC50,[2],1 nM
same,TDI,[3],Not_active
same,inhibition,[4],Dose-dependent-effect
same,TDI,[5],Not_active
same,AUC(0-inf),[6],261 µg·h/mL
same,IC50,[7],> 60 µM
same,hepatocyte CLint,[8],< 1.9 µL/min/1e6 cells

# — ChEMBL document CHEMBL6115017, “Discovery of DFV890, a Potent Sulfonimidamide-Containing NLRP3 Inflammasome Inhibitor” (J Med Chem, 2025)
